Laboratory results reported in article PMC12377313, “New 1E,1′E-hydrazine-bis(phenoxy-1,2,3-triazol-acetamide) derivatives as potent inhibitors against acetylcholinesterase, butyrylcholinesterase, and α-glucosidase” (RSC Advances, 2025).

Key:
AChE [1] = target: T1, AChE (Homo sapiens, UniProt P22303); assay: biochemical; format: biochemical; conditions: read-out: IC50 (nM) AChE
[2] = tested on: HEK293 embryonic kidney cells; assay: MTT cell viability assay, HEK293; format: cell-based; conditions: Homo sapiens, HEK293; 24 h treatment, MTT, mean ± SD (n = 3); read-out: IC50 (μM) HEK-293
Description: The human neuroblastoma cell line SH-SY5Y (ATCC® CRL-2266™) and HEK293 (ATCC® CRL-1573™) human embryonic kidney cells were grown in Dulbecco's Modified Eagle Medium/Nutrient Mixture F-12 (DMEM/F-12) culture containing 10% heat-inactivated fetal bovine serum (FBS) and 1% antibiotics. The cells were incubated at 37 °C in a humidified atmosphere of 5% CO2. Both cell lines were provided by the American Type Culture Collection (ATCC).[30,31]
SH-SY5Y (ATCC® CRL-2266™) and HEK293 (ATCC® CRL-1573™) cells were seeded into 96-well plates at a density of 5 × 10^3 cells per well, and allowed to adhere overnight in a humidified incubator at 37 °C with 5% CO2. After attachment, the cells were treated with eight different concentrations of the target compounds (200, 100, 50, 25, 12.5, 6.25, 3.125, and 1.5625 μM), prepared via serial 1 : 2 dilutions, for 24 hours. Each concentration was tested in triplicate.
(§1) Following treatment, 10 μL of MTT solution (5 mg mL^−1 in PBS) was added to each well and incubated for an additional 4 hours under the same conditions. At the end of the incubation period, the medium containing MTT was carefully removed, and the formazan crystals formed by viable cells were solubilized in 100 μL of DMSO per well. The absorbance was measured at 570 nm using a microplate reader. The net absorbance (after blank subtraction) was used to calculate the percentage cell viability relative to the untreated control cells, which was set at 100%. All results were expressed as mean ± standard deviation (SD) of three independent experiments.[32,33]

[3] = tested on: SH-SY5Y neuroblastoma cells; assay: MTT cell viability assay, SH-SY5Y; format: cell-based, human; conditions: for Selectivity (selectivity index): HEK293 versus SH-SY5Y; for IC50: Homo sapiens, SH-SY5Y, 24 h, 24 h treatment, MTT, mean ± SD (n = 3), read-out: IC50 (μM) SH-SY5Y
Description: The cells were incubated at 37 °C in a humidified atmosphere of 5% CO2. Both cell lines were provided by the American Type Culture Collection (ATCC).[30,31]
Each concentration was tested in triplicate.
as §1

α-glucosidase [4] = target: T2, α-glucosidase (Saccharomyces cerevisiae, UniProt P53341); assay: Kinetic study (Lineweaver–Burk plots), α-glucosidase; format: biochemical
Description: In this regard, compound 10k for AChE and BChE and compound 10h for α-glucosidase were selected. The type of inhibition of these compounds was determined by Lineweaver–Burk plots. […] These indicated a competitive type of inhibition for compound 10k.

α-glucosidase [5] = target: T2, α-glucosidase; assay: α-Glucosidase inhibition assay (p-NPG substrate); format: biochemical, yeast
Description: For this assay, the yeast form of α-glucosidase was used and p-nitrophenyl-α-D-glycopyranoside (p-NPG) was used as the substrate. The required solutions of these materials were prepared in a phosphate buffer solution (pH of 7.4 and a concentration of 5 mM). […] Subsequently, a mixture containing 200 μL of phosphate solution, 50 μL of the substrate, and 5–200 μL of the sample solution was pre-incubated at 35 °C for 3 min for α-glucosidase.

BChE [6] = target: T3, BChE (Homo sapiens, UniProt P06276); assay: biochemical
BChE [7] = target: T3, BChE; assay: Kinetic study (Lineweaver–Burk plots), BChE; format: biochemical
Description: (§2) […]. In this regard, compound 10k for AChE and BChE and compound 10h for α-glucosidase were selected. The type of inhibition of these compounds was determined by Lineweaver–Burk plots. […] These indicated a competitive type of inhibition for compound 10k.

AChE [8] = target: T1, AChE; assay: Kinetic study (Lineweaver–Burk plots), AChE; format: biochemical
Description: as §2

T1 sequence (P22303 32-614): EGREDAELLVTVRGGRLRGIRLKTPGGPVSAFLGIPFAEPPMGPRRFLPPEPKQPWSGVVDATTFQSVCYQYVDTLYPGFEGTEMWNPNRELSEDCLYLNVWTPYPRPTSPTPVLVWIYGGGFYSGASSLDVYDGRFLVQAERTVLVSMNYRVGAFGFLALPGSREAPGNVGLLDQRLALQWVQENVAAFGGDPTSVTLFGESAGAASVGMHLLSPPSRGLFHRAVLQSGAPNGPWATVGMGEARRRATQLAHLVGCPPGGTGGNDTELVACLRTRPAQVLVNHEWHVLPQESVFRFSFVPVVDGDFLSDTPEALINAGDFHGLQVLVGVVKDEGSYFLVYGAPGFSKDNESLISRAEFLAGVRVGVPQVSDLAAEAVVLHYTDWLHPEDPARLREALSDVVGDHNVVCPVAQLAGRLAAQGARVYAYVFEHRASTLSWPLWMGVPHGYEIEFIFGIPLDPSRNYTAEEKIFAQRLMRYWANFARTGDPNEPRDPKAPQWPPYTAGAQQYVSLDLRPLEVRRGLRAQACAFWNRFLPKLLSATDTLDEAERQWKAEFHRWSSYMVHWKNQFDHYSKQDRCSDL
T2 sequence (P53341 whole entry): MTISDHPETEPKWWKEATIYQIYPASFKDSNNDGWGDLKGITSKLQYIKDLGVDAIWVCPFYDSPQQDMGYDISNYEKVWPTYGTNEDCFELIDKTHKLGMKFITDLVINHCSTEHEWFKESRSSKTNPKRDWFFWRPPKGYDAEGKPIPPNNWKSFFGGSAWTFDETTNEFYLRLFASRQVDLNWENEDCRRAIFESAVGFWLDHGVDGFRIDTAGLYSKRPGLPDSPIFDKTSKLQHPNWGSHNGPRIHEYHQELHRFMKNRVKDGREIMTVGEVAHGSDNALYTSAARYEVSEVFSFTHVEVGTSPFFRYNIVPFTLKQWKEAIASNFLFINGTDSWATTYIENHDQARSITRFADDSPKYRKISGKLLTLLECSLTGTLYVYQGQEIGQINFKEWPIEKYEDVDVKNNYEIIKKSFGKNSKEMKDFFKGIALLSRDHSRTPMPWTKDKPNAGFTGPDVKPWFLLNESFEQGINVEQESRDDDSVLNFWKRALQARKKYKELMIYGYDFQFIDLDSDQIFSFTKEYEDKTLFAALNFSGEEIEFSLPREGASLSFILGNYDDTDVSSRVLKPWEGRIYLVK
T3 sequence (P06276 29-602): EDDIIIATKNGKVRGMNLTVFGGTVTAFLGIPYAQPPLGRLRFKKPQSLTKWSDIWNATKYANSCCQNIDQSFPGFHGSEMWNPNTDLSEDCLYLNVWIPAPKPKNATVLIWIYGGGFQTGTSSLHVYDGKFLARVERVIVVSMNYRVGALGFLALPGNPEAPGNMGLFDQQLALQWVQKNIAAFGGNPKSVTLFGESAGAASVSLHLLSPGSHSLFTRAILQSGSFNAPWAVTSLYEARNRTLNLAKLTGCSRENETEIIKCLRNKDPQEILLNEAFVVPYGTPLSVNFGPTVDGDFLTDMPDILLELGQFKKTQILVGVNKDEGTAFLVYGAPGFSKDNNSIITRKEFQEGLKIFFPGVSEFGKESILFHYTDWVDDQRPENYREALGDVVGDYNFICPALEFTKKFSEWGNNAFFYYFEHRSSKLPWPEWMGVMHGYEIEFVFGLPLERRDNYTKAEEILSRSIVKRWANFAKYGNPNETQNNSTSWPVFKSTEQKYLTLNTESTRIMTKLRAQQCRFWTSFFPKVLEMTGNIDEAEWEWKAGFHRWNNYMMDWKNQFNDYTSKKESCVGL

Row | SMILES | IC50 (AChE [1]) | IC50 [2] | Selectivity (selectivity index) [3] | IC50 [3] | type of inhibition against α-glucosidase (α-glucosidase [4]) | IC50 (α-glucosidase [5]) | IC50 (BChE [6]) | type of inhibition against BChE (BChE [7]) | type of inhibition against AChE (AChE [8])
1 | O=C(Cn1cc(COc2ccc(/C=N/N=C/c3ccc(OCc4cn(CC(=O)Nc5ccccc5Cl)nn4)cc3)cc2)nn1)Nc1ccccc1Cl [Compound 10h, 2,2′-((((((1E,1′E)-Hydrazine-1,2-diylidenebis(methaneylylidene))bis(4,1-phenylene))bis(oxy))bis(methylene))bis(1H-1,2,3-triazole-4,1-diyl))bis(N-(2-chlorophenyl)acetamide)] | 118 ± 9.17 nM | 78.38 ± 0.57 µM | 10.6 | 7.42 ± 0.07 µM | non-competitive | 23.9 ± 3.42 nM | 19.4 ± 0.65 nM |  | 
2 | O=C(Cn1cc(COc2ccc(/C=N/N=C/c3ccc(OCc4cn(CC(=O)Nc5ccc(Cl)cc5Cl)nn4)cc3)cc2)nn1)Nc1ccc(Cl)cc1Cl [Compound 10k, 2,2′-((((((1E,1′E)-Hydrazine-1,2-diylidenebis(methaneylylidene))bis(4,1-phenylene))bis(oxy))bis(methylene))bis(1H-1,2,3-triazole-4,1-diyl))bis(N-(2,4-dichlorophenyl)acetamide)] | 105 ± 7.32 nM | 81.71 ± 0.56 µM | 10.1 | 8.11 ± 0.07 µM |  | 46.1 ± 3.26 nM | 10.1 ± 1.08 nM | competitive | competitive
